Consider 32 compounds from patent US9365562B2, “1,3 substituted azetidine PDE10 inhibitors” (Merck Sharp & Dohme Corp., priority 2011, dated 2016).

The structures appear in SMILES notation.

The target in this assay is human PDE10A2 (Homo sapiens (Human), UniProt Q9Y233). In words: PDE10 fluorescence polarization (IMAP FP) inhibition assay. The format is biochemical. The note with it: apparent inhibition constant, FAM-labeled cAMP substrate 50 nM, room temperature. The essentials: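 Cytoplasmic lysate of AD293 cells transiently expressing human PDE10A2, enzyme preincubated 60 min at room temperature with compounds (1% DMSO), then 50 nM FAM-cAMP added for 60 min. Buffer 10 mM Tris HCl pH 7.2, 10 mM MgCl2, 1 mM DTT; IMAP binding reagent stop, FP read after ≥1 h.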
Chain of human PDE10A2 (Q9Y233 267-1055): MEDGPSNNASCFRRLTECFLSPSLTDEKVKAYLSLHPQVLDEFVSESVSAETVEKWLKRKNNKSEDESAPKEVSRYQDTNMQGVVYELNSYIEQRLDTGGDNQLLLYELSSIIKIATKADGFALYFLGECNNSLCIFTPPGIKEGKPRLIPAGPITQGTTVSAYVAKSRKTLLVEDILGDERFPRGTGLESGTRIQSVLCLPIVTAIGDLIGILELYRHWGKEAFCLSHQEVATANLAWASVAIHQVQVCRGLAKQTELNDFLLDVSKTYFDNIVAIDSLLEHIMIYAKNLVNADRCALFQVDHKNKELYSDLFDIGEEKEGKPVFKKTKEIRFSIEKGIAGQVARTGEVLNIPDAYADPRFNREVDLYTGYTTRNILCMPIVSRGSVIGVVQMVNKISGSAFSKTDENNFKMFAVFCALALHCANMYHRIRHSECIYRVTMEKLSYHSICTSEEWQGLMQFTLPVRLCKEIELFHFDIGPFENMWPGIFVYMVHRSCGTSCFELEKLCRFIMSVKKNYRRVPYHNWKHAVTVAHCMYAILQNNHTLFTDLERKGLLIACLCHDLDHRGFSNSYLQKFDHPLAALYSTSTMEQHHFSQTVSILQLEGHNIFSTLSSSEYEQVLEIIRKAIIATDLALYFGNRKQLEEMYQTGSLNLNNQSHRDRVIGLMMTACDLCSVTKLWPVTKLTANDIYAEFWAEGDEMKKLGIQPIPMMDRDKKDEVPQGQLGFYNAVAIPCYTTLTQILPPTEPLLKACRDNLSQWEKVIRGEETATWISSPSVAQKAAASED
`Cc1nc(-c2ccc(Cl)cn2)cc(N2CC(c3nc4ccccc4n3C)C2)n1` [Example 99, 2-(1-(6-(5-chloropyridin-2-yl)-2-methylpyrimidin-4-yl)azetidin-3-yl)-1-methyl-1H-benzo[d]imidazole]: the Ki amounted to 1.1 nM.
The result for `CCCc1nc(C)nn1-c1cc(N2CC(c3nc4ccccc4n3C)C2)nc(C)n1` [Example 38, 1-methyl-2-(1-(2-methyl-6-(3-methyl-5-propyl-1H-1,2,4-triazol-1-yl)pyrimidin-4-yl)azetidin-3-yl)-1H-benzo[d]imidazole] reads 0.41 nM; that for `Cc1nc(N2CC(c3nc4ccccc4n3C)C2)cc(-n2nc(C)nc2C2CC2)n1` [Example 36, 2-(1-(6-(5-cyclopropyl-3-methyl-1H-1,2,4-triazol-1-yl)-2-methylpyrimidin-4-yl)azetidin-3-yl)-1-methyl-1H-benzo[d]imidazole], 4.5 nM.
The result for `Cc1cn(-c2cc(N3CC(c4nc5ccccc5n4C)C3)nc(C(F)(F)F)n2)nn1` [Example 30, 1-methyl-2-(1-(6-(4-methyl-1H-1,2,3-triazol-1-yl)-2-(trifluoromethyl)pyrimidin-4-yl)azetidin-3-yl)-1H-benzo[d]imidazole] reads 5.6 nM; that for `Cc1nc(N2CC(c3nc4ccccc4n3C)C2)cc(-n2cc(C(F)(F)F)cn2)n1` [Example 16, 1-methyl-2-(1-(2-methyl-6-(4-(trifluoromethyl)-1H-pyrazol-1-yl)pyrimidin-4-yl)azetidin-3-yl)-1H-benzo[d]imidazole], 2.7 nM.
The result for `Cc1nc(N2CC(c3nc4c(C)cccc4n3C)C2)cc(-n2nc(C)nc2C)n1` [Example 124, 2-(1-(6-(3,5-dimethyl-1H-1,2,4-triazol-1-yl)-2-methylpyrimidin-4-yl)azetidin-3-yl)-1,4-dimethyl-1H-benzo[d]imidazole] reads 22 nM.
`CSc1nc(N2CC(c3nc4ccccc4n3C)C2)cc(-n2nc(C)nc2C)n1` [Example 23, 2-(1-(6-(3,5-dimethyl-1H-1,2,4-triazol-1-yl)-2-(methylthio)pyrimidin-4-yl)azetidin-3-yl)-1-methyl-1H-benzo[d]imidazole]: the Ki turned out to be 0.2 nM.
As for `Cc1nc(N2CC(c3nc4ccccc4n3C)C2)cc(-n2nc(C)nc2Cc2ccc(F)cc2)n1` [Example 58, 2-(1-(6-(5-(4-fluorobenzyl)-3-methyl-1H-1,2,4-triazol-1-yl)-2-methylpyrimidin-4-yl)azetidin-3-yl)-1-methyl-1H-benzo[d]imidazole], the figure is 0.12 nM.
Turning to `COc1nc(-c2ccc(C)cn2)cc(N2CC(c3nc4ccccc4n3C)C2)n1` [Example 96, 2-(1-(2-methoxy-6-(5-methylpyridin-2-yl)pyrimidin-4-yl)azetidin-3-yl)-1-methyl-1H-benzo[d]imidazole], the Ki was 1.3 nM.
The result for `Cc1nc(N2CC(c3nc4cccc(C(F)(F)F)c4[nH]3)C2)cc(-n2nc(C)nc2C)n1` [Example 112, 2-(1-(6-(3,5-dimethyl-1H-1,2,4-triazol-1-yl)-2-methylpyrimidin-4-yl)azetidin-3-yl)-7-(trifluoromethyl)-1H-benzo[d]imidazole] reads greater than 75 nM; that for `Cc1nc(N2CC(c3nc4ccccc4n3CCO)C2)cc(-n2nc(C)nc2C)n1` [Example 117, 2-(2-(1-(6-(3,5-dimethyl-1H-1,2,4-triazol-1-yl)-2-methylpyrimidin-4-yl)azetidin-3-yl)-1H-benzo[d]imidazol-1-yl)ethanol], 6.6 nM; that for `Cc1ccc(C2CN(c3cc(-n4nc(C)nc4C)nc(C)n3)C2)nc1` [Example 126, 4-(3,5-Dimethyl-1H-1,2,4-triazol-1-yl)-2-methyl-6-[3-(5-methylpyridin-2-yl)azetidin-1-yl]pyrimidine], 407 nM.
As for `COc1ccn(-c2cc(N3CC(c4nc5ccccc5n4C)C3)nc(C)n2)n1` [Example 12, 2-(1-(6-(3-methoxy-1H-pyrazol-1-yl)-2-methylpyrimidin-4-yl)azetidin-3-yl)-1-methyl-1H-benzo[d]imidazole], the figure is 4.7 nM.
Take `Cc1nc(N2CC(c3nc4ccccc4[nH]3)C2)cc(-n2nc(C)nc2C)n1` [Example 107, 2-(1-(6-(3,5-Dimethyl-1H-1,2,4-triazol-1-yl)-2-methylpyrimidin-4-yl)azetidin-3-yl)-1H-benzo[d]imidazole]: the Ki worked out at 5.8 nM.
For the compound `COc1nc(N2CC(c3nc4ccccc4n3C)C2)cc(-n2ncc(C)n2)n1` [Example 34, 2-{1-[2-methoxy-6-(4-methyl-2H-1,2,3-triazol-2-yl)pyrimidin-4-yl]azetidin-3-yl}-1-methyl-1H-benzimidazole], the Ki was found to be 1.4 nM.
As for `Cc1nc(-c2cccc(C(F)(F)F)n2)cc(N2CC(c3nc4ccccc4n3C)C2)n1` [Example 87, 1-methyl-2-(1-(2-methyl-6-(6-(trifluoromethyl)pyridin-2-yl)pyrimidin-4-yl)azetidin-3-yl)-1H-benzo[d]imidazole], the figure is 1.3 nM.
As for `Cc1nc(-c2ccncc2)cc(N2CC(c3nc4ccccc4n3C)C2)n1` [Example 86, 1-methyl-2-(1-(2-methyl-6-(pyridin-4-yl)pyrimidin-4-yl)azetidin-3-yl)-1H-benzo[d]imidazole], the figure is 46 nM.
As for `Cc1cnn(-c2cc(N3CC(c4nc5ccccc5n4C)C3)nc(C3CC3)n2)c1` [Example 6, 2-(1-(2-cyclopropyl-6-(4-methyl-1H-pyrazol-1-yl)pyrimidin-4-yl)azetidin-3-yl)-1-methyl-1H-benzo[d]imidazole], the figure is 0.53 nM.
Consider `COCc1nc(C)nn1-c1cc(N2CC(c3nc4ccccc4n3C)C2)nc(C)n1` [Example 59, 2-(1-{6-[5-(methoxymethyl)-3-methyl-1H-1,2,4-triazol-1-yl]-2-methylpyrimidin-4-yl}azetidin-3-yl)-1-methyl-1H-benzimidazole], for which the Ki amounted to 1.5 nM.
The result for `Cc1cc(C)n(-c2cc(N3CC(c4nc5ccccc5n4C)C3)nc(C)n2)n1` [Example 7, 2-(1-(6-(3,5-dimethyl-1H-pyrazol-1-yl)-2-methylpyrimidin-4-yl)azetidin-3-yl)-1-methyl-1H-benzo[d]imidazole] reads 8.6 nM.
The result for `COC(=O)c1nc(N2CC(c3nc4ccccc4n3C)C2)cc(-n2nc(C)nc2C)n1` [Example 24, methyl 4-(3,5-dimethyl-1H-1,2,4-triazol-1-yl)-6-(3-(1-methyl-1H-benzo[d]imidazol-2-yl)azetidin-1-yl)pyrimidine-2-carboxylate] reads 1.8 nM; that for `Cc1noc(COc2nc(N3CC(c4nc5ccccc5n4C)C3)cc(-n3nc(C)nc3C)n2)n1` [Example 75, 5-(((4-(3,5-dimethyl-1H-1,2,4-triazol-1-yl)-6-(3-(1-methyl-1H-benzo[d]imidazol-2-yl)azetidin-1-yl)pyrimidin-2-yl)oxy)methyl)-3-methyl-1,2,4-oxadiazole], 0.7 nM.
As for `Cc1cn(-c2cc(N3CC(c4nc5ccccc5n4C)C3)nc(C3CC3)n2)nn1` [Example 32, 2-(1-(2-cyclopropyl-6-(4-methyl-1H-1,2,3-triazol-1-yl)pyrimidin-4-yl)azetidin-3-yl)-1-methyl-1H-benzo[d]imidazole], the figure is 1.1 nM; as for `Cc1nc(-c2ccccc2OC(F)F)cc(N2CC(c3nc4ccccc4n3C)C2)n1` [Example 91, 2-(1-(6-(2-(difluoromethoxy)phenyl)-2-methylpyrimidin-4-yl)azetidin-3-yl)-1-methyl-1H-benzo[d]imidazole], 22 nM.
With `Cc1nc(-c2ccccn2)cc(N2CC(c3nc4ccccc4n3C)C2)n1` [Example 95, 1-methyl-2-(1-(2-methyl-6-(pyridin-2-yl)pyrimidin-4-yl)azetidin-3-yl)-1H-benzo[d]imidazole], the Ki worked out at 1.8 nM.
The result for `Cc1cnn(-c2cc(N3CC(c4nc5ccccc5n4C)C3)nc(C)n2)n1` [Example 28, 1-methyl-2-(1-(2-methyl-6-(4-methyl-2H-1,2,3-triazol-2-yl)pyrimidin-4-yl)azetidin-3-yl)-1H-benzo[d]imidazole] reads 1.7 nM.
`Cc1nc(N2CC(c3nc4ccccc4n3C)C2)cc(-n2nc(C)nc2CN2CCCC2=O)n1` [Example 48, 1-((3-methyl-1-(2-methyl-6-(3-(1-methyl-1H-benzo[d]imidazol-2-yl)azetidin-1-yl)pyrimidin-4-yl)-1H-1,2,4-triazol-5-yl)methyl)pyrrolidin-2-one]: the Ki was found to be 0.26 nM.
As for `Cc1nc(N2CC(c3nc4ccccc4n3C)C2)cc(-n2nc(C)nc2-c2cccnc2)n1` [Example 52, 1-methyl-2-(1-(2-methyl-6-(3-methyl-5-(pyridin-3-yl)-1H-1,2,4-triazol-1-yl)pyrimidin-4-yl)azetidin-3-yl)-1H-benzo[d]imidazole], the figure is 7.5 nM; as for `Cc1nc(N2CC(c3nc4ccccc4n3C)C2)cc(-n2nc(C)nc2C(C)C)n1` [Example 39, 2-(1-(6-(5-isopropyl-3-methyl-1H-1,2,4-triazol-1-yl)-2-methylpyrimidin-4-yl)azetidin-3-yl)-1-methyl-1H-benzo[d]imidazole], 3.1 nM.
As to `Cc1nc(-c2ccccc2)cc(N2CC(c3nc4ccccc4n3C)C2)n1` [Example 88, 1-methyl-2-(1-(2-methyl-6-phenylpyrimidin-4-yl)azetidin-3-yl)-1H-benzo[d]imidazole], the Ki is 63 nM.
As for `Cc1nc(C)n(-c2cc(N3CC(c4nc5ccccc5n4C)C3)nc(CC#N)n2)n1` [Example 25, 2-(4-(3,5-dimethyl-1H-1,2,4-triazol-1-yl)-6-(3-(1-methyl-1H-benzo[d]imidazol-2-yl)azetidin-1-yl)pyrimidin-2-yl)acetonitrile], the figure is 1.3 nM.
For `CC(=O)Nc1ncccc1-c1cc(N2CC(c3nc4ccccc4n3C)C2)nc(C)n1` [Example 83, N-(3-(2-methyl-6-(3-(1-methyl-1H-benzo[d]imidazol-2-yl)azetidin-1-yl)pyrimidin-4-yl)pyridin-2-yl)acetamide], the Ki amounted to 75 nM.
